Source: PMC6017224, “Phytoestrogenic Activity of Blackcurrant Anthocyanins Is Partially Mediated through Estrogen Receptor Beta” (Molecules : A Journal of Synthetic Chemistry and Natural …, 2017)
pIC50: −log10 of the molar value.

Target: T1, human ERβ (Homo sapiens, UniProt Q92731)
T1 construct: purchased Life Technologies
Assay: PolarScreen ERβ competitive binding assay (fluorescence polarization)
Details: recombinant human ERβ 23 nM, 4.5 nM Fluormone ES2 Green, 2 h; approximate IC50; read-out: IC50 (displacement of Fluormone ES2 Green from ERβ)

T1 sequence (Q92731 whole entry): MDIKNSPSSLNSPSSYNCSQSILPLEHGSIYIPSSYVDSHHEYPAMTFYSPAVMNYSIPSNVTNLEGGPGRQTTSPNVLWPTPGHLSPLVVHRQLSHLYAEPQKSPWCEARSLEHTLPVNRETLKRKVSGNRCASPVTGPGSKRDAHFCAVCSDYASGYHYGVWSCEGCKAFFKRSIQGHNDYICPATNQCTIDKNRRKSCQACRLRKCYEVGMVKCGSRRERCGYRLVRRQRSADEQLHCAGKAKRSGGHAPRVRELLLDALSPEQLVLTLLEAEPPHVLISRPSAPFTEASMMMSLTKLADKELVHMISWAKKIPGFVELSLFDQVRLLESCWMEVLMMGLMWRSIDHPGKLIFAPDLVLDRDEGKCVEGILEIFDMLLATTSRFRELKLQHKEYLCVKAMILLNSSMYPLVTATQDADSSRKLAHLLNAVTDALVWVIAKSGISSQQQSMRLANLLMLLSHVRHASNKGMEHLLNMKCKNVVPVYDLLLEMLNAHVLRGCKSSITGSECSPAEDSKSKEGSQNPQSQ

pIC50 | Structure (SMILES)
5.01 | OC[C@H]1O[C@@H](Oc2cc3c(O)cc(O)cc3[o+]c2-c2cc(O)c(O)c(O)c2)[C@H](O)[C@@H](O)[C@@H]1O [D3G, delphinidin-3-glucoside]
5.55 | OC[C@H]1O[C@@H](Oc2cc3c(O)cc(O)cc3[o+]c2-c2ccc(O)c(O)c2)[C@H](O)[C@@H](O)[C@@H]1O [C3G, cyanidin-3-glucoside]
5.64 | C[C@@H]1O[C@@H](OC[C@H]2O[C@@H](Oc3cc4c(O)cc(O)cc4[o+]c3-c3cc(O)c(O)c(O)c3)[C@H](O)[C@@H](O)[C@@H]2O)[C@H](O)[C@H](O)[C@H]1O [D3R, delphinidin-3-rutinoside]
